Usually EC50 stands for the concentration that produces a half-maximal response.

From US20240116999A1, “CONFORMATIONALLY CONSTRAINED GLUCAGON ANALOGUES AND THEIR USE IN GLUCAGON-SINGLE CHAIN INSULIN FUSION PROTEINS” (THE TRUSTEES OF INDIANA UNIVERSITY, priority 2021, published 2024) come the findings set out here.

Data set [1] can be described thus: Thioflavin T (ThT) fibrillation assay. It counts as physicochemical. The conditions noted are these: for formation of amyloid-like fibrils: FIG. 15, month-long assay, 100 μM, pH 7.4, 37° C.; for fibril formation: FIG. 5, relative to native glucagon. The protocol:
Fibrillation Assays. We employed an automated plate-based fluorescent device to monitor the time course of peptide fibrillation using a Thioflavin T (ThT) assay. This assay is based on the THT fluorescence emission at 480 nm upon binding to mature fibrils when excited at 440 nm. The assay was performed by preparing stock solutions of the fusion protein and the individual peptides in either NaCl 0.9% (pH 2.5) or PBS (pH 7.4). Our experience has identified 100-μM final concentration as optimal fibrillation conditions for glucagon analogues. Stock solutions were diluted with NaCl 0.9% or 1X PBS buffer, pH adjusted (with 1N HCl or 1N NaOH) mixed with Thioflavin-T (THT) at a final concentration of 16 μM, centrifuged, and 250 μl of the sample were placed on a 96-well plate with 4-10 technical replicates. Measurements were done every 15 minutes and the sample agitated at 1096 cpm at 37° C. on a Synergy H1 microplate reader (BioTek, Winooski, VT). The lag time, defined as the time-point at which fibrillation starts its exponential phase, was considered as the point at which fluorescence was 3 times the background signal.

The target in a further data set is glucagon receptor (Homo sapiens, UniProt P47871). As to the kind of experiment: Cell-based cyclic AMP (cAMP) activity assay. The conditions noted are these: for EC50: FIG. 8B, HEK-293 cells overexpressing glucagon receptor, read-out: EC50 (cAMP production). As for the experimental part:
Cell-based Activity Assays. We generated a cAMP assay on HepG2 cells transiently transfected with the glucagon receptor (GCGR). The GCGR gene with C-terminal Flag tag was synthesized and ligated to a pcDNA 3.1 vector by Genscript. A plate of HepG2 cells was grown to 70% confluence and then transfected with 15 μg plasmid. […] Then, cAMP was measured following the instructions of the LANCETM Ultra cAMP Kit (PerkingElmer) using 3 technical replicates per point. This is a TR-FRET assay based on the competition between a europium-labeled cAMP and sample cAMP for binding to cAMP-specific labeled antibodies. In the LANCE cAMP assay, a higher sample cAMP (higher glucagon activity) translates to lower signal.

In data set [2] the test system is normal rats. As to the kind of experiment: Stability assay: samples incubated at 37° C., then activity tested. It counts as in vivo, rat. The conditions noted are these: FIG. 11; 150 μg/ml in 50 mM Tris buffer pH 8.0, 37° C., mild agitation and rotation; tested t=0, day 3, day 7.
Method: Glucagon Activity Assays. The glycemic activities of glucagon analogues were tested (Ismail-Beigi ,Case Western Reserve University) in normal male rats (250-350 g) that were fasted for 4 h before the injection and not fed during the course of the experiment (4-5 rats per dose of glucagon in parallel). Glucagon or analogues were prepared (150 μg/ml in sterile 50 mM Tris-HCl buffer (pH 8.0)) and administered by subcutaneous injections (40.1 nmol/kg (˜50 ug/333 g rat)) in an injection volume of 200 μl/333 g rat. Rats were grouped according to their 2nd measured starting blood-glucose concentrations to ensure similar starting values at time=0. For in vivo dose-response studies a series of doses (40.1, 8.0, 1.6, 0.32, 0.064, and 0.013 nmol/kg) was tested in groups of 4-5 rats at each dose. Diluent volume was 200 μl/333 g rat. Experiments were repeated at least twice, and the results were averaged. The rise in blood glucose values were corrected by any changes observed in diluent-injected rats.
To test for stability of glucagon and its analogues, samples (150 μg/ml in 50 mM Tris-HCl buffer (pH 8.0)) were incubated at 37° C. with mild agitation and rotation. Samples were tested as described above after varying periods of incubation.
Data set [3] deals with normal rats. As to the kind of experiment: In vivo glucagon activity assay in normal rats. The arrangement: species or system rat. Particulars: for in vivo glucagon activity (rise in blood glucose): subcutaneous injection.
Method: Glucagon Activity Assays. […] Glucagon or analogues were prepared (150 μg/ml in sterile 50 mM Tris-HCl buffer (pH 8.0)) and administered by subcutaneous injections (40.1 nmol/kg (˜50 ug/333 g rat)) in an injection volume of 200 μl/333 g rat. Rats were grouped according to their 2nd measured starting blood-glucose concentrations to ensure similar starting values at time=0. For in vivo dose-response studies a series of doses (40.1, 8.0, 1.6, 0.32, 0.064, and 0.013 nmol/kg) was tested in groups of 4-5 rats at each dose. Diluent volume was 200 μl/333 g rat. Experiments were repeated at least twice, and the results were averaged. The rise in blood glucose values were corrected by any changes observed in diluent-injected rats.
A further data set deals with STZ (diabetic) rats. As to the kind of experiment: In vivo assay in STZ (diabetic) rats, subcutaneous injection. Details: species or system rat. The text has this: FIG. 17 presents an in vivo assay done in STZ rats.
FIG. 18 presents another in vivo assay done in STZ rats. The four fusion proteins used in FIG. 17 were subcutaneously injected at doses of 23.8 nmol/kg per rat. […] In this study both fusion proteins carrying an active SCI analogue had similar activities.

Setting [4] is: pH 2.5, 37° C., constant agitation.

Bridge positions count the residues as written; N and C are the ends. Square brackets hold non-standard residues; d marks the D form. Ends that are not written are not given here. Peptide text beside a SMILES is read from it. Orn = NCCC[C@H](N)C(=O)O

Sequence of glucagon receptor (P47871 26-477, species assumed): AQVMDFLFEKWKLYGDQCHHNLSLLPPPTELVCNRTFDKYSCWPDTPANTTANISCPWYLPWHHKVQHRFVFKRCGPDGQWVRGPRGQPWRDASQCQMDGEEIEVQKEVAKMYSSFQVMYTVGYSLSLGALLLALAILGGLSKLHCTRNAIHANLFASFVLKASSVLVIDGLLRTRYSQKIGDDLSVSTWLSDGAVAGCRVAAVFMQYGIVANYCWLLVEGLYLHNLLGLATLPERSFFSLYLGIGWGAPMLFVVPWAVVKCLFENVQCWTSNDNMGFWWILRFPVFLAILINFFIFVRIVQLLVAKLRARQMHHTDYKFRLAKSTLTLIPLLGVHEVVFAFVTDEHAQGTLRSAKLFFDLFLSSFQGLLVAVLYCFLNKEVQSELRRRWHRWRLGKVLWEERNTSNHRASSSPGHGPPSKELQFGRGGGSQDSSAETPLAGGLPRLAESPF

Take `CSCC[C@H](NC(=O)[C@H](CC(C)C)NC(=O)[C@H](Cc1c[nH]c2ccccc12)NC(=O)[C@H](CCC(N)=O)NC(=O)[C@@H](NC(=O)[C@H](Cc1ccccc1)NC(=O)[C@H](CC(=O)O)NC(=O)[C@H](CCC(N)=O)NC(=O)[C@H](C)NC(=O)[C@H](CCCN)NC(=O)[C@H](CCCN)NC(=O)[C@H](CO)NC(=O)[C@H](CC(=O)O)NC(=O)[C@H](CC(C)C)NC(=O)[C@H](Cc1ccc(O)cc1)NC(=O)[C@H](CCCN)NC(=O)[C@H](CO)NC(=O)[C@H](Cc1ccc(O)cc1)NC(=O)[C@H](CC(=O)O)NC(=O)[C@H](CO)NC(=O)[C@@H](NC(=O)[C@H](Cc1ccccc1)NC(=O)[C@@H](NC(=O)CNC(=O)[C@H](CCC(N)=O)NC(=O)[C@H](CO)NC(=O)[C@@H](N)Cc1c[nH]cn1)[C@@H](C)O)[C@@H](C)O)C(C)C)C(=O)N[C@@H](CC(N)=O)C(=O)N[C@H](C(=O)N[C@@H](CCC(=O)O)C(=O)N[C@@H](CCC(=O)O)C(=O)N[C@@H](CCCCN)C(=O)O)[C@@H](C)O` [SEQ ID NO: 21, HSQGTFTSDYSOYLDSOOAQDFVQWLMNTEEK] (H-HSQGTFTSDYS[Orn]YLDS[Orn][Orn]AQDFVQWLMNTEEK-OH; N-terminus and C-terminus assumed): in data set [1], the “formation of amyloid-like fibrils” value was “formed amyloid-like fibrils”. The EC50 on glucagon receptor is 93.5 nM.

As for `CSCC[C@H](NC(=O)[C@H](CC(C)C)NC(=O)[C@H](Cc1c[nH]c2ccccc12)NC(=O)[C@H](CCC(N)=O)NC(=O)[C@@H](NC(=O)[C@H](Cc1ccccc1)NC(=O)[C@H](CC(=O)O)NC(=O)[C@H](CCC(N)=O)NC(=O)[C@H](C)NC(=O)[C@H](CCCN)NC(=O)[C@@H]1CCC(=O)NCCCC[C@H](NC(=O)[C@H](CCCN)NC(=O)[C@H](CO)NC(=O)[C@H](Cc2ccc(O)cc2)NC(=O)[C@H](CC(=O)O)NC(=O)[C@H](CO)NC(=O)[C@@H](NC(=O)[C@H](Cc2ccccc2)NC(=O)[C@@H](NC(=O)CNC(=O)[C@H](CCC(N)=O)NC(=O)[C@H](CO)NC(=O)[C@@H](N)Cc2c[nH]cn2)[C@@H](C)O)[C@@H](C)O)C(=O)N[C@@H](CC(C)C)C(=O)N[C@@H](CC(=O)O)C(=O)N[C@@H](CO)C(=O)N1)C(C)C)C(=O)N[C@@H](CC(N)=O)C(=O)N[C@H](C(=O)N[C@@H](CCC(=O)O)C(=O)N[C@@H](CCC(=O)O)C(=O)N[C@@H](CCCCN)C(=O)O)[C@@H](C)O` [SEQ ID NO: 23, HSQGTFTSDYSOKLDSEOAQDFVQWLMNTEEK] (H-HSQGTFTSDYS[Orn]KLDSE[Orn]AQDFVQWLMNTEEK-OH; lactam 13-17; N-terminus and C-terminus assumed), in data set [1] (FIG. 7, phosphate-buffered saline pH 7.4, 100 μM, 37° C., constant agitation), the “time without fibril formation” value is above 11 days. Moreover, the “formation of amyloid-like fibrils” value in data set [1] was “did not form amyloid-like fibrils within the duration of the experiment”. The EC50 at glucagon receptor stood at 126 nM. Besides, the “biological activity after incubation (stability)” value in the data set on normal rats [2] is given as “maintained full biological activity”. Moreover, the “rise in blood glucose levels” value with normal rats [3] (FIG. 12, 8 nmol/kg rat dose) is on record as “minor raise”. In addition, the “rise in blood glucose levels, dose-response” value in the data set on normal rats [3] (FIG. 12, doses 0.32, 1.6, 8 and 40 nmol/kg rat) is reported as “only at the maximum dose”. The “in vivo glucagon activity (rise in blood glucose)” value (“in vivo glucagon activity” for short) in the data set with normal rats [3] (FIGS. 9, 10, 13) is listed as “maximal activity”; in the data set with normal rats [3] (FIGS. 9, 10, 13, listed as [Lys13, Glu17]-glucagon-EEK lactam) it was “active”.

Consider `CC(C)C[C@H](NC(=O)[C@H](Cc1c[nH]c2ccccc12)NC(=O)[C@H](CCCCN)NC(=O)[C@@H](NC(=O)[C@H](Cc1ccccc1)NC(=O)[C@H](CCC(=O)O)NC(=O)[C@H](CCC(=O)O)NC(=O)[C@H](C)NC(=O)[C@H](CCCNC(=N)N)NC(=O)[C@H](C)NC(=O)C(C)(C)NC(=O)[C@H](CC(=O)O)NC(=O)[C@H](CC(C)C)NC(=O)[C@H](Cc1ccc(O)cc1)NC(=O)[C@H](CCCCN)NC(=O)[C@H](CO)NC(=O)[C@H](Cc1ccc(O)cc1)NC(=O)[C@H](CC(=O)O)NC(=O)[C@H](CO)NC(=O)[C@@H](NC(=O)[C@H](Cc1ccccc1)NC(=O)[C@@H](NC(=O)CNC(=O)[C@H](CCC(N)=O)NC(=O)[C@H](CO)NC(=O)[C@@H](N)Cc1c[nH]cn1)[C@@H](C)O)[C@@H](C)O)C(C)C)C(=O)N[C@@H](CCC(=O)O)C(=O)N[C@@H](CO)C(=O)N[C@H](C(=O)O)[C@@H](C)O` [dasiglucagon, reference compound], for which, in the data set on normal rats [2], the “biological activity after incubation (stability)” value was “maintained full biological activity”.

“FVNQHLCGSHLVEALYLVCGEOGFFYTPETEEGPOOGIVEQCCQSICSLEQLENYCN (FVNQHLCGSHLVEALYLVCGEXGFFYTPETEEGPXXGIVEQCCQSICSLEQLENYCN; ornithine residues; insulin peptide analog; (22)..(22) Xaa at position 22 is Orn.; (35)..(35) Xaa at position 35 is Orn.; (36)..(36) Xaa at position 36 is Orn.) [SEQ ID NO: 71, 57-residue single-chain insulin (SCI) analogue lacking internal tryptic sites]”: the “formation of amyloid-like fibrils” value in data set [1] is “did not form amyloid-like fibrils within the duration of the experiment”. Besides, the “biological activity relative to insulin Lispro (KP-insulin)” value with STZ (diabetic) rats (FIG. 14, STZ (diabetic) rats, 30-μg dose of SCI vs 15-μg dose of KP-insulin) is “slightly higher activity than a 15-μg dose of KP-insulin”.

For the compound “HSQGTFTSDYSKKLDSERAQDFVQWLMNT (lactam 13-17) [SEQ ID NO: 10, a lactam bridge connects the side chains of variant residues K13 and E17]”, the “in vivo glucagon activity” value in the data set with normal rats [3] (FIGS. 9, 10, 13, listed as [Lys13, Glu17]-glucagon lactam) is “active”.

With “HSQGTFTSDYSKKLDSERAQDFVQWLMNT (lactam 13-17) [[Lys13, Glu17]-Glucagon linear, linear [Lys13, Glu17] analogue without Orn substitutions or C-terminal EEK extension]”, the “in vivo glucagon activity” value with normal rats [3] (FIGS. 9, 10, 13) is “only analogue that is active, other than wild-type glucagon, was the [Lys13, Glu17]-glucagon lactam”.

Consider “HSQGTFTSDYSKYLDSRRAQDFVQWLMNTK [SEQ ID NO: 3]”, for which the fibril formation entry in data set [1] (setting [4]) was “delay fibril formation”.

With “HSQGTFTSDYSKYLDSRRAQDFVQWLMNTO [SEQ ID NO: 5]”, the fibril formation result is given as “delay fibril formation” in data set [1] (setting [4]) and “delay fibril formation” in data set [1] (pH 7.4, 37° C., constant agitation).

Take “HSQGTFTSDYSKYLDSRRAQDFVQWLMNTR (glucagon peptide analog) [SEQ ID NO: 2]”: the fibril formation entry in data set [1] (setting [4]) is on record as “delay fibril formation”.

Take “HSQGTFTSDYSOKLDSEOAQDFVQWLMNTEEK (HSQGTFTSDYS[Orn]KLDSE[Orn]AQDFVQWLMNTEEK; lactam 13-17) [[Lys13, Glu17]-glucagon-EEK linear, includes the [Lys13-Glu17] substitutions but not the side-chain lactam bond]”: the “potency (cAMP assay)” value with glucagon receptor (FIG. 8, relative to the lactam analogue) is given as “markedly diminished potency”. In the data set with normal rats [3] (FIGS. 9, 10, 13), the “in vivo glucagon activity” value was “inactive”.

For the compound “HSQGTFTSDYSOYLDSOOAQDFV[D-Cys]WLCNTEEK [[D-Cys24-Cys27] L]”, the “in vivo glucagon activity” value in the data set with normal rats [3] (FIGS. 9, 10, 13) was “only analogue that is active, other than wild-type glucagon, was the [Lys13, Glu17]-glucagon lactam”.

As for “HSQGTFTSKYSOELDSOOAQDFVQWLMNTEEK (HSQGTFTSKYS[Orn]ELDS[Orn][Orn]AQDFVQWLMNTEEK; lactam 9-13) [SEQ ID NO: 24]”, the “in vivo glucagon activity” value in the data set with normal rats [3] (FIGS. 9, 10, 13) is “inactive”.

As to “HSQGTFTSKYSOELDSOOAQDFVQWLMNTEEKFVNQHLCGSHLVEALYLVCGEOGFFYTPETEEGPOOGIVEQCCQSICSLEQLENYCN [SEQ ID NO: 75]”, the “activity at 23.8 nmol/kg relative to the 12-nmol/kg rat doses” value in the data set on STZ (diabetic) rats (FIG. 18 vs FIG. 17, STZ rats) is reported as “increased activity at the increased dose”.

Regarding human insulin [reference compound], in data set [1], the “formation of amyloid-like fibrils” value was “formed amyloid-like fibrils”.

With insulin Lispro [reference compound], the “formation of amyloid-like fibrils” value in data set [1] is listed as “formed amyloid-like fibrils”.
